Test results reported in US20240408043A1, “COMPOSITIONS AND METHODS FOR USE IN INCREASING MOTIVATIONAL PERFORMANCE” (SOCIETE DES PRODUITS NESTLE S.A., priority 2021, published 2024).
Entries after “also recorded” stand apart in the source; their conditions may differ.

Columns and labels:
Adult male Wistar rats = assay: Progressive ratio test of motivated behaviour (operant conditioning, nose poke for saccharine pellets); assay type: in vivo, rat; settings: NAC 500 mg/L in the drinking water for 2 weeks, two-hour session
Protocol: Adult male outbred rats were trained for nose poke for saccharine food pellets for one week on an FR1 training schedule as described in the methods below. […] Following 2 weeks of treatment, rats were given an additional 2 training sessions, followed 24 h later by a progressive ratio session designed to test their motivated behaviour. During this progressive ratio session, rats have to increasingly work harder to earn the saccharine pellet, as described in the methods below. […] The breakpoint is defined as the last step in the session where the animals received a reward and is a direct correlate of their willingness to exert an effort. […] Animals: Adult male Wistar rats (Charles Rivers, Saint-German-Nuelle, France) weighing 250-275 gr at the beginning of the experiment were used for all experiments. Rats were individually housed in cages in housing colonies on a 12:12 h reversed light:dark cycle with lights on at 20:00, and lights-off at 8:00. Food and water were available adlibitum. Following a week of acclimatization to the animal facilities, rats were handled for 2 min per day for three days prior to the start of the experiments, in order to habituate to the experimenters. Operant conditioning: Ten days after introduction to the reversed day-night cycle, rats started training in a fixed ratio 1 reinforcement schedule (FR1). Operant chambers (Coulbourn Instruments, Holliston, MA, US), placed in sound attenuating cubicles, were equipped with a grid, underneath which a tray with standard bedding material was placed for collection of feces and urine after each training session. Each chamber had one food tray and two ports placed on either side of the tray. A cue light was placed in each port and the food tray, whereas a house light was placed above the food tray. […] Correct nosepokes (i.e. nosepokes in the active port and outside the timeout period, thus resulting in food delivery) were calculated to evaluate behavioural performance, as well as the number of acquired rewards and the last completed ratio (breakpoint).

[1] = test system: GSH in the nucleus accumbens; assay: GSH level in the nucleus accumbens after NAC in the drinking water; assay type: in vivo, rat; settings: adult male rats, NAC 500 mg/L in the drinking water for 2 weeks, FIG. 1B

## CC(=O)N[C@@H](CS)C(=O)O [NAC, N-acetyl cysteine]
Adult male Wistar rats; FIG. 1C
  nose pokes for the reward (correct nosepokes) in progressive ratio session, compared to vehicle: significantly more nose pokes
Adult male Wistar rats; FIG. 1D
  number of rewards earned in progressive ratio session, compared to vehicle: greater number of rewards; also recorded: more overall rewards
Adult male Wistar rats; FIG. 1E
  breakpoint (last completed ratio) in progressive ratio session, compared to vehicle: significantly higher breakpoint level
[1]
  GSH in the nucleus accumbens compared to vehicle treated rats: enhance GSH levels; also recorded: enhanced GSH
